Where a name gives a salt, the structure may show the parent alone.

Data set [1] is described as follows: Hygroscopicity of the salts. Type of data set: physicochemical.
A short description of data set [2]: Corrosiveness of the salts. The format is physicochemical.
A short description of data set [3]: Storage of tablets at room temperature in an open container (discoloration). Type of data set: physicochemical. To be noted: tablets stored 9 days at room temperature (15-25° C.) in an open container. Here is the method: Tablets were stored for 9 days at room temperature (15-25° C.) in an open container.
The test system of a further data set is mammals. As to the kind of experiment: Toxicity of prasugrel salts with regard to mammals. Type of data set: in vivo. To be noted: compared with other salts. The source says:
Although the exact reason for this low toxicity hat not yet been found, it is assumed that this effect is due to a different solubility of the salts. The toxicity and safety margin of prasugrel can be controlled by varying the solubility of its salts.

As to `CC(=O)Oc1cc2c(s1)CCN(C(C(=O)C1CC1)c1ccccc1F)C2.O=S(=O)(O)c1cccc2c(S(=O)(=O)O)cccc12` (stereo not shown) [prasugrel napadisylate, Prasugrel-1,5-Dinapsylate], the hygroscopicity entry in data set [1] is reported as “not hygroscopic”. Also, the corrosiveness result in data set [2] was “not corrosive”.
Take `CC(=O)Oc1cc2c(s1)CCN(C(C(=O)C1CC1)c1ccccc1F)C2` (stereo not shown) [prasugrel-HCl, Prasugrel-Hydrochloride]: in data set [3], the “discoloration of tablets on storage” value is given as “clear discoloration”.
With `CC(=O)Oc1cc2c(s1)CCN(C(C(=O)C1CC1)c1ccccc1F)C2.O=S(=O)(O)c1ccc2ccccc2c1` (stereo not shown) [prasugrel napsylate, Prasugrel-2-Napsylate], the hygroscopicity result in data set [1] is “not hygroscopic”. Besides, the corrosiveness result in data set [2] is “not corrosive”.
As for Prasugrel-Besylate [prasugrel besylate], in the data set with mammals, the toxicity result is listed as “very low toxicity”. Besides, the hygroscopicity entry in data set [1] was “not hygroscopic”.
